Assays:
[1] = tested on: SARS-CoV-2 WA1 (USA-WA1/2020); experiment: Antiviral immunofluorescence assay, SARS-CoV-2 WA1 in Calu-3 cells; format: cell-based; conditions: for fold lower EC50 compared to V2043: Calu-3 and Huh7.5 cells; for fold more active than RDV: Calu-3 cells, based on EC50; for EC50: Severe acute respiratory syndrome coronavirus 2, Calu-3, WA1, Calu-3 cells, read-out: EC50; for EC50 / EC90: immunofluorescence, 44 hpi, mean ± SD; for EC90: Severe acute respiratory syndrome coronavirus 2, WA1, Calu-3 cells; for fold more active than 116-N1, the parent nucleoside of VV116: own EC50 compared with 116-N1 of ref 15
[2] = tested on: SARS-CoV-2 (WA-1); experiment: Antiviral immunofluorescence assay, SARS-CoV-2 WA1 in Huh7.5 cells; format: cell-based
[3] = in vitro; conditions: human
[4] = in vitro; conditions: human; remark: listed apart in the source
[5] = tested on: SARS-CoV-2 (WA-1); experiment: Antiviral immunofluorescence assay, SARS-CoV-2 WA1 in Vero-TMPRSS2 cells; format: cell-based; conditions: for EC50: Severe acute respiratory syndrome coronavirus 2, Vero/TMPRSS2; for EC90: Severe acute respiratory syndrome coronavirus 2, WA-1, Vero-TMPRSS2 cells, immunofluorescence, 38 hpi
[6] = in vitro
Experimental: Cells were seeded as per SARS-CoV-2 infection studies in opaque walled 96-well cell culture plates and incubated overnight for Huh7.5 and Vero-TMPRSS2 cells and for an additional 24h for Calu-3 cells. Compounds or controls were added at the indicated concentrations. Cells were incubated for 48h for Huh7.5 cells, 40–44h for Calu-3 cells, or 30–32h for Vero-TMPRSS2 cells at 37 °C and 5% CO2, an equal volume of CellTiter-Glo reagent (Cat. #G7570, Promega) or CellTiter-Glo 2.0 reagent (Cat. #G9241, Promega) was added and mixed, and luminescence was recorded on a Veritas Microplate Luminometer (Turner BioSystems) according to manufacturer recommendations. Percent viability was calculated compared to DMSO controls, and CC50 values were calculated using Prism 9.
Calu-3 cells were treated for 44h (A), Huh7.5 cells were treated for 48h (B), and Vero-
TMPRSS2 cells were treated for 38h (C) as in infection assays for each cell type. Cell viability
was measured by CellTiter-Glo assay and reported as % cell viability relative to DMSO controls.
Best fit curves calculated in Graphpad Prism 9 were used
to compute cytotoxic concentration 50% (CC50) values in Tables 1-3.

[7] = Severe acute respiratory syndrome coronavirus 2, WA-1, Huh7.5 cells, immunofluorescence, 48 hpi, read-out: EC50
[8] = Severe acute respiratory syndrome coronavirus 2, WA-1, Huh7.5 cells, immunofluorescence, 48 hpi, read-out: EC90
[9] = Severe acute respiratory syndrome coronavirus 2, Huh7.5

Row | Structure (SMILES) | fold lower EC50 compared to V2043 [1] | fold more active than RDV [1] | EC50 [1] | EC90 [1] | fold more active than 116-N1, the parent nucleoside of VV116 [1] | EC50 [2, 7] | EC90 [2, 8] | CC50 at 44 h [3] | CC50 at 48 h [4] | EC50 [5] | EC90 [5] | CC50 ([6]; African green monkey) | CC50 ([6]; chlorocebus aethiops) | EC50 [2, 9] | EC90 [2, 9]
1 | CCCCCCCCCCCCCCCCCCOC[C@H](COP(=O)(O)OC[C@H]1O[C@@](C#N)(c2ccc3c(N)ncnn23)[C@H](O)[C@@H]1O)OCc1ccc(C#N)cc1 [Compound 9j, ((2R,3S,4R,5R)-5-(4-Aminopyrrolo[2,1-f][1,2,4]triazin-7-yl)-5-cyano-3,4-dihydroxytetrahydrofuran-2-yl)methyl ((R)-2-((4-cyanobenzyl)oxy)-3-(octadecyloxy)propyl) hydrogen phosphate] | 3–5.5 fold | 5.3 fold | 43 ± 13 nM | 82 ± 22 nM | 11.5 fold | 24 ± 2 nM | 70 ± 10 nM | 60200 nM | 47200 nM | – | – | – | – | – | –
2 | CCCCCCCCCCCCCCCCCCOC[C@H](COP(=O)(O)OC[C@H]1O[C@@](C#N)(c2ccc3c(N)ncnn23)[C@H](O)[C@@H]1O)OCCC1CCCCC1 [Compound 9i, ((2R,3S,4R,5R)-5-(4-Aminopyrrolo[2,1-f][1,2,4]triazin-7-yl)-5-cyano-3,4-dihydroxytetrahydrofuran-2-yl)methyl ((R)-2-(2-cyclohexylethoxy)-3-(octadecyloxy)propyl) hydrogen phosphate] | – | – | 144 ± 20 nM | 1830 ± 1040 nM | – | 92 ± 26 nM | 1310 ± 310 nM | 98700 nM | 69800 nM | 296 ± 10 nM | 582 ± 14 nM | > 100000 nM | – | – | –
3 | CCCCCCCCCCCCCCCCCCOC[C@H](COP(=O)(O)OC[C@H]1O[C@@](C#N)(c2ccc3c(N)ncnn23)[C@H](O)[C@@H]1O)OCCCCCCCC [Compound 9h, ((2R,3S,4R,5R)-5-(4-Aminopyrrolo[2,1-f][1,2,4]triazin-7-yl)-5-cyano-3,4-dihydroxytetrahydrofuran-2-yl)methyl ((R)-3-(octadecyloxy)-2-(octyloxy)propyl) hydrogen phosphate] | – | – | 391 ± 39 nM | 2500 ± 1240 nM | – | 564 ± 252 nM | 3360 ± 2860 nM | > 100000 nM | > 100000 nM | 775 ± 245 nM | 1790 ± 140 nM | – | > 100000 nM | – | –
4 | CCCCCCCCCCCCCCCCOC[C@H](COP(=O)(O)OC[C@H]1O[C@@](C#N)(c2ccc3c(N)ncnn23)[C@H](O)[C@@H]1O)OCc1ccccc1 [Compound 11a, ((2R,3S,4R,5R)-5-(4-Aminopyrrolo[2,1-f][1,2,4]triazin-7-yl)-5-cyano-3,4-dihydroxytetrahydrofuran-2-yl)methyl ((R)-2-(benzyloxy)-3-(hexadecyloxy)propyl) hydrogen phosphate] | – | – | 95 ± 12 nM | 716 ± 270 nM | – | 131 ± 66 nM | 268 ± 221 nM | 88700 nM | > 100000 nM | 402 ± 84 nM | 798 ± 154 nM | – | > 100000 nM | – | –
5 | CCCCCCCCCCCCCCCCCCOC[C@H](COP(=O)(O)OC[C@H]1O[C@@](C#N)(c2ccc3c(N)ncnn23)[C@H](O)[C@@H]1O)OCc1ccc(C(F)(F)F)cc1 [Compound 9f, ((2R,3S,4R,5R)-5-(4-Aminopyrrolo[2,1-f][1,2,4]triazin-7-yl)-5-cyano-3,4-dihydroxytetrahydrofuran-2-yl)methyl ((R)-3-(octadecyloxy)-2-((4-(trifluoromethyl)benzyl)oxy)propyl) hydrogen phosphate] | – | – | 177 ± 12 nM | 408 ± 181 nM | – | – | – | 90200 nM | – | – | – | – | – | – | –
6 | CCCCCCCCCCCCCCCCCCOC[C@H](COP(=O)(O)OC[C@H]1O[C@@](C#N)(c2ccc3c(N)ncnn23)[C@H](O)[C@@H]1O)OCc1ccccc1C#N [Compound 9l, ((2R,3S,4R,5R)-5-(4-Aminopyrrolo[2,1-f][1,2,4]triazin-7-yl)-5-cyano-3,4-dihydroxytetrahydrofuran-2-yl)methyl ((R)-2-((2-cyanobenzyl)oxy)-3-(octadecyloxy)propyl) hydrogen phosphate] | – | – | 91 ± 25 nM | 186 ± 47 nM | – | 102 ± 17 nM | 281 ± 30 nM | 82800 nM | > 100000 nM | – | – | – | – | – | –
7 | CCCCCCCCCCCCCCCCCCOC[C@H](COP(=O)(O)OC[C@H]1O[C@@](C#N)(c2ccc3c(N)ncnn23)[C@H](O)[C@@H]1O)OCc1cccc(C#N)c1 [Compound 9k, ((2R,3S,4R,5R)-5-(4-Aminopyrrolo[2,1-f][1,2,4]triazin-7-yl)-5-cyano-3,4-dihydroxytetrahydrofuran-2-yl)methyl ((R)-2-((3-cyanobenzyl)oxy)-3-(octadecyloxy)propyl) hydrogen phosphate] | 3–5.5 fold | 6.7 fold | 34 ± 7 nM | 65 ± 36 nM | 9.1 fold | 24 ± 6 nM | 77 ± 17 nM | 61600 nM | 49600 nM | – | – | – | – | – | –
8 | CCCCCCCCCCCCCCCCCCOC[C@H](COP(=O)(O)OC[C@H]1O[C@@](C#N)(c2ccc3c(N)ncnn23)[C@H](O)[C@@H]1O)OCc1cccc(C(F)(F)F)c1 [Compound 9e, ((2R,3S,4R,5R)-5-(4-Aminopyrrolo[2,1-f][1,2,4]triazin-7-yl)-5-cyano-3,4-dihydroxytetrahydrofuran-2-yl)methyl ((R)-3-(octadecyloxy)-2-((3-(trifluoromethyl)benzyl)oxy)propyl) hydrogen phosphate] | – | – | 160 ± 93 nM | 316 ± 83 nM | – | – | – | 66900 nM | – | – | – | – | – | – | –
9 | CCCCCCCCCCCCCCOC[C@H](COP(=O)(O)OC[C@H]1O[C@@](C#N)(c2ccc3c(N)ncnn23)[C@H](O)[C@@H]1O)OCc1ccccc1 [Compound 12a, ((2R,3S,4R,5R)-5-(4-Aminopyrrolo[2,1-f][1,2,4]triazin-7-yl)-5-cyano-3,4-dihydroxytetrahydrofuran-2-yl)methyl ((R)-2-(benzyloxy)-3-(tetradecyloxy)propyl) hydrogen phosphate] | – | – | 213 ± 97 nM | 575 ± 251 nM | – | – | – | > 100000 nM | > 100000 nM | 909 ± 27 nM | 1630 ± 120 nM | – | > 100000 nM | 157 ± 400 nM | 479 ± 19 nM
10 | CCCCCCCCCCCCCCCCCCOC[C@H](COP(=O)(O)OC[C@H]1O[C@@](C#N)(c2ccc3c(N)ncnn23)[C@H](O)[C@@H]1O)OCc1cccc(F)c1 [Compound 9d, ((2R,3S,4R,5R)-5-(4-Aminopyrrolo[2,1-f][1,2,4]triazin-7-yl)-5-cyano-3,4-dihydroxytetrahydrofuran-2-yl)methyl ((R)-2-((3-fluorobenzyl)oxy)-3-(octadecyloxy)propyl) hydrogen phosphate] | – | – | 224 ± 129 nM | 506 ± 204 nM | – | 191 ± 77 nM | 488 ± 199 nM | 94700 nM | 75000 nM | 271 ± 22 nM | 629 ± 61 nM | – | > 100000 nM | – | –
11 | CCCCCCCCCCCCCCCCCCOC[C@@H](COP(=O)(O)OC[C@H]1O[C@@](C#N)(c2ccc3c(N)ncnn23)[C@H](O)[C@@H]1O)OCc1ccccc1 [Compound 9b, ((2R,3S,4R,5R)-5-(4-Aminopyrrolo[2,1-f][1,2,4]triazin-7-yl)-5-cyano-3,4-dihydroxytetrahydrofuran-2-yl)methyl ((S)-2-(benzyloxy)-3-(octadecyloxy)propyl) hydrogen phosphate] | – | – | 160 ± 24 nM | 625 ± 195 nM | – | – | – | 93400 nM | – | – | – | – | – | – | –
12 | CCCCCCCCCCCCCCCCCCOCC(COP(=O)(O)OC[C@H]1O[C@@](C#N)(c2ccc3c(N)ncnn23)[C@H](O)[C@@H]1O)OCc1ccccc1 (stereo partly drawn) [Compound 9c, ((2R,3S,4R,5R)-5-(4-aminopyrrolo[2,1-f][1,2,4]triazin-7-yl)-5-cyano-3,4-dihydroxytetrahydrofuran-2-yl)methyl ((R,S)-2-(benzyloxy)-3-(octadecyloxy)propyl) hydrogen phosphate] | – | – | 172 ± 78 nM | 1070 ± 1040 nM | – | 175 ± 120 nM | 519 ± 256 nM | 92100 nM | 64600 nM | 238 ± 74 nM | 613 ± 84 nM | – | > 100000 nM | – | –

Reference: article PMC10108740 (Journal of Medicinal Chemistry, 2023)
